Reference: patent US20120040977A1, “INHIBITORS OF HCV NS5A” (PRESIDIO PHARMACEUTICALS, INC., priority 2009, published 2012)

The compounds below were run on HCV genotype 1b replicon (assay: HCV replicon assay (HCV 1b_Huh-Luc/Neo-ET cell line, luciferase readout)). Conditions: Hepatitis C virus; bicistronic genotype 1b replicon in Huh 7 cells, 72 h incubation, luciferase enzyme activity; read-out: Inhibition of HCV genotype 1b.
Assay type: cell-based
Experimental: Biological activity of the compounds of the invention was determined using an HCV replicon assay. The HCV 1b_Huh-Luc/Neo-ET cell line persistently expressing a bicistronic genotype 1b replicon in Huh 7 cells was obtained from ReBLikon GMBH. This cell line was used to test compound inhibition using luciferase enzyme activity readout as a measurement of compound inhibition of replicon levels.
On Day 1 (the day after plating cells), each compound is added in triplicate to the cells. Plates are incubated for 72 h prior to determining luciferase levels. Enzyme activity was measured using a Bright-Glo Kit (cat. number E2620) manufactured by Promega Corporation. The following equation was used to generate a percent control value for each compound.
% Control=(Average Compound Value/Average Control)*100
The EC50 value was determined using GraphPad Prism and the following equation:
Y=Bottom+(Top−Bottom)/(1+10̂((LogIC50−X)*HillSlope))
EC50 values of compounds are determined several times in the replicon assay. […]

Structure (SMILES) | EC50 [nM]
COC(=O)N[C@H](C(=O)N1CCC[C@H]1c1ncc(-c2ccc(Sc3cccc(-c4cnc([C@@H]5CCCN5C(=O)[C@@H](NC(=O)OC)C(C)C)[nH]4)c3)cc2)[nH]1)C(C)C [Compound 69] | < 1
C[C@@H](NC(=O)OC(C)(C)C)C(=O)N1CCC[C@H]1C(=O)Nc1ccc(-c2ccc(-c3cnc([C@@H]4CCCN4C(=O)[C@@H](C)NC(=O)OC(C)(C)C)[nH]3)cc2)cc1 [Compound 14] | 1 to 9.9
CC(C)(C)OC(=O)N[C@@H](C(=O)N1CCC[C@H]1C(=O)NCc1ccc(-c2ccc(-c3cnc([C@@H]4CCCN4C(=O)[C@H](NC(=O)OC(C)(C)C)c4ccccc4)[nH]3)cc2)cc1)c1ccccc1 [Compound 33] | < 1
C[C@@H](NC(=O)C1CC1)C(=O)N1CCC[C@H]1c1ncc(-c2ccc(Oc3ccc(-c4cnc([C@@H]5CCCN5C(=O)[C@@H](C)NC(=O)C5CC5)[nH]4)cc3)cc2)[nH]1 [Compound 58] | 10 to 999
COC(=O)N[C@@H](C(=O)N1CCC[C@H]1c1ncc(-c2ccc(-c3ccc(C(=O)NC[C@@H]4CCCN4C(=O)[C@H](NC(=O)N4CCOCC4)c4ccccc4)cc3)cc2)[nH]1)c1ccccc1 [Compound 67] | < 1
[2H]C([2H])([2H])C([2H])(C([2H])([2H])[2H])C([2H])(NC(=O)OC)C(=O)N1CCC[C@H]1c1ncc(-c2ccc(-c3ccc(NC(=O)[C@@H]4CCCN4C(=O)[C@@]([2H])(NC(=O)OC)C([2H])(C([2H])([2H])[2H])C([2H])([2H])[2H])cc3)cc2)[nH]1 (some centres unmarked) [Compound 77] | < 1
COC(=O)N[C@H](C(=O)N1CCC[C@H]1C(=O)NCc1ccc(-c2ccc3nc([C@@H]4CCCN4C(=O)[C@@H](NC(=O)OC)C(C)C)[nH]c3c2)cc1)C(C)C [Compound 87] | 1 to 9.9
CC(C)(C)OC(=O)N1CCOCC1C(=O)Nc1ccc(-c2ccc(-c3cnc([C@@H]4COCCN4C(=O)OC(C)(C)C)[nH]3)cc2)cc1 (some centres unmarked) [Compound 4] | > 1000
COC(=O)N[C@@H](C(=O)N1CCC[C@H]1CNC(=O)c1ccc(-c2ccc(-c3cnc([C@@H]4CCCN4C(=O)[C@H](NC(=O)OC)c4ccccc4)[nH]3)nc2)cc1)c1ccccc1 [Compound 91] | < 1
COC(=O)N[C@H](C(=O)N1CCC[C@H]1CNC(=O)c1ccc(-c2ccc3nc([C@@H]4CCCN4C(=O)[C@@H](NC(=O)OC)C(C)C)[nH]c3c2)cn1)C(C)C [Compound 115] | 10 to 999
COC(=O)N[C@H](C(=O)N1CCC[C@H]1CNC(=O)c1ccc(-c2ccc(-c3cnc([C@@H]4CCCN4C(=O)[C@@H](NC(=O)OC)C4CCOCC4)[nH]3)cc2)cc1)C1CCOCC1 [Compound 123] | 1 to 9.9
COC(=O)N[C@@H](C(=O)N1CCC[C@H]1c1ncc(-c2ccc(-c3ccc(C(=O)NC[C@@H]4CCCN4C(=O)[C@@H](c4ccccc4)N4CCCCC4)cc3)cc2)[nH]1)c1ccccc1 [Compound 64] | < 1
COC(=O)N[C@@H](C)C(=O)N1CCC[C@H]1C(=O)Nc1ccc(-c2ccc(-c3cnc([C@@H]4CCCN4C(=O)[C@H](C)NC(=O)OC)[nH]3)cc2)cc1 [Compound 108] | 10 to 999
C[C@@H](NC(=O)OC(C)(C)C)C(=O)N1CCOC[C@H]1C(=O)Nc1ccc(-c2ccc(-c3cnc([C@@H]4CCCN4C(=O)[C@@H](C)NC(=O)OC(C)(C)C)[nH]3)cc2)cc1 [Compound 12] | 10 to 999
C#CC[C@H](NC(=O)OC)C(=O)N1CCC[C@H]1C(=O)NCc1ccc(-c2ccc(-c3cnc([C@@H]4CCCN4C(=O)[C@H](CC#C)NC(=O)OC)[nH]3)cc2)cc1 [Compound 81] | 10 to 999
COC(=O)N[C@@H](C)C(=O)N1CCC[C@H]1CNC(=O)c1ccc(-c2ccc(-c3cnc([C@@H]4CCCN4C(=O)[C@H](C)NC(=O)OC)[nH]3)cc2)cc1 [Compound 98] | 1 to 9.9

Structure (SMILES) | EC50 [nM]
COC(=O)N[C@@H](C(=O)N1CCC[C@H]1CNC(=O)c1ccc(-c2ccc(-c3cnc([C@@H]4CCCN4C(=O)[C@@H](c4ccccc4)N4CCCCC4)[nH]3)cc2)cc1)c1ccccc1 [Compound 61] | < 1
CC(C)(C)OC(=O)N[C@@H](C(=O)N1CCC[C@H]1C(=O)Nc1ccc(-c2ccc(-c3cnc([C@@H]4CCCN4C(=O)[C@H](NC(=O)OC(C)(C)C)c4ccccc4)[nH]3)cc2)cc1)c1ccccc1 [Compound 26] | < 1
COC(=O)N[C@H](C(=O)N1CCC[C@H]1C(=O)Nc1ccc(-c2ccc3nc([C@@H]4CCCN4C(=O)[C@@H](NC(=O)OC)C(C)C)[nH]c3c2)cc1)C(C)C [Compound 73] | 1 to 9.9
C#CC[C@H](NC(=O)OC)C(=O)N1CCC[C@H]1C(=O)Nc1ccc(-c2ccc(-c3cnc([C@@H]4CCCN4C(=O)[C@H](CC#C)NC(=O)OC)[nH]3)cc2)cc1 [Compound 76] | 1 to 9.9
C[C@@H](NC(=O)C1CC1)C(=O)N1CCC[C@H]1C(=O)Nc1ccc(-c2ccc(-c3cnc([C@@H]4COCCN4C(=O)[C@@H](C)NC(=O)C4CC4)[nH]3)cc2)cc1 [Compound 19] | 1 to 9.9
CC(C)[C@@H](NC(=O)OC(C)(C)C)C(=O)N1CCOC[C@H]1C(=O)Nc1ccc(-c2ccc(-c3cnc([C@@H]4COCCN4C(=O)[C@H](NC(=O)OC(C)(C)C)C(C)C)[nH]3)cc2)cc1 [Compound 18] | 10 to 999
COC(=O)N[C@@H](C)C(=O)N1CCC[C@H]1C(=O)N[C@H](C)c1ccc(-c2ccc(-c3cnc([C@@H]4CCCN4C(=O)[C@H](C)NC(=O)OC)[nH]3)cc2)cc1 [Compound 96] | 1 to 9.9
COC(=O)N[C@H](C(=O)N1CCC[C@H]1C(=O)NCc1ccc(-c2ccc3cc(-c4cnc([C@@H]5CCCN5C(=O)[C@@H](NC(=O)OC)C(C)C)[nH]4)ccc3n2)cc1)C(C)C [Compound 86] | 1 to 9.9
CC(C)[C@@H](NC(=O)C1CC1)C(=O)N1CCOC[C@H]1C(=O)Nc1ccc(-c2ccc(-c3cnc([C@@H]4COCCN4C(=O)[C@H](NC(=O)C4CC4)C(C)C)[nH]3)cc2)cc1 [Compound 25] | 1 to 9.9
C[C@@H](NC(=O)[C@@H]1CCCN1C(=O)[C@H](NC(=O)OC(C)(C)C)c1ccccc1)c1ccc(-c2ccc(-c3cnc([C@@H]4CCCN4C(=O)[C@H](NC(=O)OC(C)(C)C)c4ccccc4)[nH]3)cc2)cc1 [Compound 39] | < 1
COC(=O)N[C@@H](C(=O)N1CCC[C@H]1C(=O)NCc1ccc(-c2ccc3nc([C@@H]4CCCN4C(=O)[C@H](NC(=O)OC)c4ccccc4)[nH]c3c2)cc1)c1ccccc1 [Compound 111] | < 1
C[C@@H](NC(=O)[C@@H]1CCCN1C(=O)[C@H](NC(=O)N1CCOCC1)c1ccccc1)c1ccc(-c2ccc(-c3cnc([C@@H]4CCCN4C(=O)[C@H](NC(=O)N4CCOCC4)c4ccccc4)[nH]3)cc2)cc1 [Compound 41] | 1 to 9.9
COC(=O)N[C@H](C(=O)N1CCC[C@H]1c1nc2c([nH]1)-c1ccc(-c3ccc(C(=O)NC[C@@H]4CCCN4C(=O)[C@H](NC(=O)OC)c4ccccc4)cc3)cc1CC2)C(C)C [Compound 85] | < 1
CN1CCN(C(=O)N[C@@H](C(=O)N2CCC[C@H]2C(=O)NCc2ccc(-c3ccc(-c4cnc([C@@H]5CCCN5C(=O)[C@H](NC(=O)N5CCN(C)CC5)c5ccccc5)[nH]4)cc3)cc2)c2ccccc2)CC1 [Compound 45] | 1 to 9.9
COC(=O)N[C@@H](C(=O)N1CCC[C@H]1c1ncc(-c2ccc(-c3ccc(NC(=O)[C@@H]4CCCN4C(=O)[C@@H](c4ccccc4)N(C)C)cc3)cc2)[nH]1)c1ccccc1 [Compound 60] | < 1
COC(=O)N[C@H](C(=O)N1CCC[C@H]1C(=O)Nc1ccc(-c2ccc(-c3cnc([C@@H]4CCCN4C(=O)[C@@H](NC(=O)OC)C4CCOCC4)[nH]3)cc2)cc1)C1CCOCC1 [Compound 110] | 1 to 9.9
